# In US20240173276A1, “METHODS AND COMPOSITIONS FOR INHIBITING FORMATION OF THE HIV LATENT RESERVOIR” (The University of North Carolina at Chapel Hill, priority 2021, published 2024):
# Key:
# [1] = tested on: HIV-GFP infected primary CD4 T cells; experiment: Primary CD4 T cell latency model (HIV-GFP reporter, flow cytometry of GFP- cells); type: cell-based, human; settings: for effect on the formation of latently infected (GFP-) cells: cultured in the presence of inhibitor from 2 dpi for up to 4 weeks, FIG. 1B
# Source text: Viruses and cell culture: Stocks of HIV-GFP were generated by co-transfection of 293T cells with the pNL4-3-Δ6-dreGFP plasmid (generous gift of Robert Siliciano) and the packaging plasmids PAX2-GagPol) and MD2-VSVG, using Mirus LT1 reagent. At 2 days post transfection virus was harvested from the supernatant and clarified by low speed centrifugation, followed by filtration through a […] filter.
# Primary cell latency model: Primary CD4 T cells were isolated from fresh whole blood (purchased from Gulf Coast Regional Blood Center) by Ficoll isolation of peripheral blood mononuclear cells (PBMCs), then magnetic negative selection of CD4 T cells using a CD4 enrichment kit (Stem Cell). Total primary CD4 T cells were activated using anti-CD3/CD28 beads (Thermo Fisher) at a ratio of one bead per cell for 2 days, then infected with HIV-GFP viral supernatant by spinocculation for 2 hrs at 600 g with 4 µg/mL polybrene. The infected cells were then resuspended in fresh RPMI with IL-2 (Peprotech) at 100 U/mL and incubated for two days before actively infected (GFP^+) cells were sorted using a FACSAria flow sorter (Becton Dickson). The purified infected cells (GFP^+) were then maintained at 1-2 million/mL with fresh media and IL-2 added every 2-3 days for 2 weeks. […] Other small molecule inhibitors were purchased from commercial vendors.
# HIV latency is regulated by covalent modifications to provirus-associated histones that can promote or repress transcription. These modifications are mediated by a set of host cell enzyme complexes, including histone acetyl transferases (HATs), histone deacetylases (HDACs), histone methyltransferases (HMTs) and histone demethylases (HDMs). To investigate the role of these complexes in the establishment of HIV latency a primary CD4 T cell model of latency was examined. In this model, activated CD4 T cells are infected with a GFP expressing reporter strain of HIV. At 2 dpi, actively infected cells (GFP^+) are sorted to obtain a pure actively infected population, then cultured for 3-4 weeks (FIG. 1A). […] To examine the role of specific histone modifying enzymes in this system, actively infected (GFP^+) cells were isolated at 2 dpi and the cells cultured in the presence of a panel of inhibitors targeting chromatin modifying complexes. […] The infected cells were cultured in the presence of each inhibitor for up to 4 weeks. Each week post infection, the emergence of the latently infected (GFP^−) population was measured by flow cytometry (FIG. 1B).
# [2] = tested on: HIV-dreGFP/Thy1.2 infected primary CD4 T cells; experiment: HDAC selective inhibitor experiments in HIV-dreGFP/Thy1.2 infected CD4 T cells (viral gene expression by flow cytometry); type: cell-based, human; settings: cultured 14 d in the presence of inhibitor; FIG. 7B
# Source text: FIGS. 7A-7D show Class I HDAC selective inhibitors reveal druggable dependency on HDAC1 and 2 in latency initiation. A. Schematic overview of HDAC selective inhibitor experiments. […] B. Dose response curve showing the proportion of cells with productive viral gene expression after two weeks of treatment with the indicated inhibitors. Data shown are from one representative cell donor conducted in technical triplicate. C. Time course flow cytometry experiment in HIV-GFP/Thy1.2 infected primary CD4 T cells cultured with the indicated inhibitors. […] D. Mean fluorescent intensity (MFI) of GFP signal in Thy1.2+ cells in data from C. Data shown are representative of three independent experiments.
# However, the contribution and roles of individual HDACs are largely unknown. Because of the high homology of HDAC1 and HDAC2 in the enzyme activation site, selective inhibitors for HDAC1 or HDAC2 have not been developed. Thus, the impact of novel small molecules that inhibit both HDAC1 and HDAC2 (HDAC1/2i) or HDAC3 (HDAC3i) on HIV silencing in CD4 T cells was examined. Activated CD4 T cells were infected with HIV-dreGFP/Thy1.2 and cultured for 14 d in the presence of each inhibitor, and viral gene expression was measured by flow cytometry (FIG. 7A).
# [3] = tested on: HIV-eGFP infected CD4 T cells; experiment: Surface marker phenotype of HIV infected CD4 T cells by flow cytometry; type: cell-based, human; settings: vorinostat exposure post stimulation, vs DMSO, FIG. 4
# Procedure: HIV gene expression is regulated by a set of host cell transcription factors that vary in activity as CD4 T cells adopt different activation states and sub-lineage identities post activation. […] To investigate this possibility, flow cytometry was performed to examine the surface marker phenotype of HIV infected cells.
# [4] = previous clinical studies, vorinostat dosing; cited from earlier work
smiles,measurement,setting,value
COc1cc2nc(N3CCCN(C)CC3)nc(NC3CCN(Cc4ccccc4)CC3)c2cc1OC [BIX1294],effect on the formation of latently infected (GFP-) cells,[1],modest reduction in the percentage of latently infected cells
Nc1cc(F)ccc1NC(=O)/C=C/c1cnn(C/C=C/c2ccccc2)c1 [RGFP966],"latency prevention (prevention of HIV silencing), dose response",[2],much lower extent
"Nc1ncnc2c1ncn2[C@@H]1O[C@H](C[C@@H](N)CC[C@H](N)C(=O)O)[C@@H](O)[C@H]1O [Singefungin, sinefungin]",effect on the formation of latently infected (GFP-) cells,[1],no significant effect
CCCc1cc(C)[nH]c(=O)c1CNC(=O)c1cc(-c2ccc(N3CCN(C(C)C)CC3)nc2)cc2c1cnn2C(C)C [UNC1999],effect on the formation of latently infected (GFP-) cells,[1],modest reduction in the percentage of latently infected cells
CC(C)N(C[C@H]1O[C@@H](n2cnc3c(N)ncnc32)[C@H](O)[C@@H]1O)[C@H]1C[C@@H](CCc2nc3cc(C(C)(C)C)ccc3[nH]2)C1 [pinometostat],effect on the formation of latently infected (GFP-) cells,[1],no significant effect
O=C(CCCCCCC(=O)Nc1ccccc1)NO [vorinostat],GFP status of treated cells after removal of vorinostat,"[1]; 2 weeks vorinostat, then 2 weeks culture without vorinostat, FIG. 2A",remained mostly GFP^−
same,percentage of latent (GFP-) cells,"[1]; 3 weeks post infection, in the presence of vorinostat, DMSO 70%",10%
same,reduction of latent (GFP-) population vs vehicle (DMSO),"[1]; 3 weeks post infection, from 70% (DMSO) to 10%",7 fold
same,"impact on HIV latency, vorinostat in media 0-14 days post infection","[1]; add in / wash out, latently infected cells measured at 3 wpi, FIG. 2B",significant impact
same,"impact on frequency of latently infected cells, addition or removal between 14 dpi and 21 dpi","[1]; add in / wash out, measured at 3 wpi, FIG. 2B",little impact
same,"emergence of latently infected cells, continuous exposure","[1]; continuous vorinostat 500 nM, 3 weeks post infection, FIG. 1C",potently prevented the emergence of latently infected cells
same,effect on the formation of latently infected (GFP-) cells,[1],potently inhibited the emergence of a latent (GFP^−) population
same,"establishment of latency, pulsatile exposure","[1]; daily 6 h pulse of vorinostat 500 nM followed by 18 h wash-out, 3 weeks, FIG. 1C",significantly block the establishment of latency in a subset of cells
same,suppression of HIV latency over a range of concentrations,"[1]; exposure for two weeks to different vorinostat concentrations, FIG. 2A",clear dose-dependent fashion
same,fraction of cells with central memory phenotype (CD45RA- CCR7+),[3]; 2-3 weeks post infection,increased fraction
same,expression of CD4 T cell activation marker PD-1,[3],did not lead to increased expression
same,time of declining concentrations,[4],6 to 24 h
same,time of peak concentrations,[4],2 to 6 h
